Reference: patent US20170052170A1, “NOVEL CELL LINES AND METHODS” (priority 2009, published 2017)

What was measured:
Assay type in all cases: cell-based
[1] = target: T1, human odorant receptor OR1D2 (Homo sapiens, UniProt P34982); test: Calcium mobilization (Fluo-4) assay, HEK293T cells expressing OR1D2 and human Gα15; conditions: final concentration 0.3 mM, vs DMSO vehicle, FIG. 29B
T1 construct: expressed in transfected cells; host or cells: 293T (HEK293T)
T1 sequence (P34982 1-312): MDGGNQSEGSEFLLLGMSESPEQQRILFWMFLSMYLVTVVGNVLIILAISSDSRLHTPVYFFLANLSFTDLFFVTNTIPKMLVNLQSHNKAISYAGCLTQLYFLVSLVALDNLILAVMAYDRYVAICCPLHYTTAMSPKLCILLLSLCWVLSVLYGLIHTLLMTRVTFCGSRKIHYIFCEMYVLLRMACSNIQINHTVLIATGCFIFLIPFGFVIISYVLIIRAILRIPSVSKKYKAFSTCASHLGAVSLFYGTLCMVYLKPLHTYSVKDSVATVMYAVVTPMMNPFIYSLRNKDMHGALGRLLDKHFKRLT
Description: (§1) Populations of cells were tested using functional criteria. Calcium mobilization dye Fluo-4 (Invitrogen) was used according to manufacturer's instructions. HEK293T cell lines stably expressing h-OR were maintained under standard cell culture conditions in DMEM medium supplemented with 10% fetal bovine serum and glutamine. On the day before assay, the cells were harvested from stock plates and plated into black clear-bottom 384 well assay plates. The assay plates were maintained in a 37° C. cell culture incubator under 5% CO2 for 22-48 hours. […] The assay plates were then loaded on a fluorescent plate reader (Hamamatsu FDSS) and agonist (4.5 mM Helional for OR3A1 and 0.3 mM Bourgeonal for OR1D2-FIGS. 29A, 29B) dissolved in the above buffer (130 mM NaCl, 5 mM KCl, 2 mM CaCl2, 1.2 mM MgCl2, 10 mM HEPES, 10 mM glucose, pH 7.0) was added. Cells were tested at multiple different densities in 384-well plates and responses were analyzed. […]
(§2) In order to identify and measure the ligand-induced responsiveness of odorant receptor-expressing HEK293T cells, receptor activation are monitored by measuring receptor-triggered alterations in intracellular calcium levels. […] Software (Hamamatsu FDSS) analysis of images reports the change in relative fluorescence for each well in the cell plate.

[2] = target: T1, human odorant receptor OR1D2; test: calcium flux assay in cell line expressing human odorant receptor OR1D2; conditions: final concentration 0.3 mM
Description: (§3) FIG. 29B depicts representative traces of the functional cell-based response of a cell line described herein expressing human odorant receptor OR1D2 to Bourgeonal (to a final concentration of 0.3 mM) compared to DMSO vehicle background signal as control. Test (black) and control (gray) traces are overlaid. […] The cell-based assay was designed to report calcium flux using a fluorescent calcium signaling dye. Fluorescent assay response is plotted along the Y-axis and time is indicated along the X-axis. Arrows indicate the timepoint at which Bourgeonal or DMSO was added.

[3] = target: T2, human odorant receptor OR3A1 (Homo sapiens, UniProt P47881, R125Q); test: calcium flux assay in cell line expressing human odorant receptor OR3A1; conditions: final concentration 4.5 mM
T2 construct: expressed in transfected cells; host or cells: 293T (HEK293T)
T2 sequence (P47881 1-315 R125Q): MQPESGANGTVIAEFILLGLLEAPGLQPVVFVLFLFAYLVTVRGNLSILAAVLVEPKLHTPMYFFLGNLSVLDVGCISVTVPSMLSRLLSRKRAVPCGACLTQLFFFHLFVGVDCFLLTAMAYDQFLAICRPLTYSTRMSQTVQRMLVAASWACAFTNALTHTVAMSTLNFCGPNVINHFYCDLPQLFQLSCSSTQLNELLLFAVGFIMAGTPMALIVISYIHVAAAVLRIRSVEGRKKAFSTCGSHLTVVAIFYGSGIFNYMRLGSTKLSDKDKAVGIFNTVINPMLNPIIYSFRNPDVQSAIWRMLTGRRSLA
Description: as §3, with “29 (A-B) depicts representative traces of the functional cell-based response of cells expressing a human odorant receptor to Helional and to Bourgeonal compared to background. FIG. 29A” for “29B”, “OR3A1” for “OR1D2”, “Helional” for “Bourgeonal”, “4.5” for “0.3”

[4] = target: T2, human odorant receptor OR3A1; test: Calcium mobilization (Fluo-4) assay, HEK293T cells expressing OR3A1 and human Gα15; conditions: final concentration 4.5 mM, vs DMSO vehicle, FIG. 29A
Description: as §1, §2

Compound	functional cell-based calcium flux response [1]	functional cell-based (calcium flux) response compared to DMSO vehicle background [2]	functional cell-based (calcium flux) response compared to DMSO vehicle background [3]	functional cell-based calcium flux response [4]
CC(C)(C)c1ccc(CCC=O)cc1 [Bourgeonal]	response to Bourgeonal over background	response to Bourgeonal over background		
CC(C=O)Cc1ccc2c(c1)OCO2 (stereo not shown) [Helional]			response to Helional over background	response to Helional over background
